Measurements published in US20230165970A1, “COMPOSITIONS AND METHODS FOR THE TREATMENT OF BACTERIAL INFECTIONS” (priority 2017, published 2023).
Values after ≈ are worked out from the molar mass of the structure shown. Where two headings read alike, the source gives them in different places. *1 amine or outer side, *2 acyl side, *3 side chain or, on linkers, in order; H or OH if unused. Where a SMILES comes first, the peptide text is derived from it. Bridges are numbered along the chain shown (N, C = ends). Roman numbers before positions name the chains, in order. [ ]: non-standard residue; d: D form. X4 = C#CCOCCOCCOCCOCCNC(=O)CN(CC(=O)[*:1])CC(=O)[*:2]; X1 = CCCCCC[C@@H](O)[C@H](N[*:1])C(=O)[*:2]; dCha = N[C@H](CC1CCCCC1)C(=O)O; Nle = CCCC[C@H](N)C(=O)O; Dab = NCC[C@H](N)C(=O)O; azaGly = NNC(=O)O

How the values were obtained:
[1] = tested on: A. baumannii AB5075; format: cell-based
Protocol: (§1) Overnight stationary-phase cultures were centrifuged at 3,500×g for 10 min at room temperature and resuspended in 1×PBS to an optical density at 600 nm (OD600) of 0.4 (1×10^8 colony forming units [CFU]/ml) in RPMI with L-glutamine and phenol red (Life Technologies). Bacteria were diluted 1:25 in RPMI ([…]) and 10 ul added to wells of a non-binding 96-well plate (Corning 3641) containing 80 ul of 50% hirudin anti-coagulated blood (complement active) in RPMI. […] MBC was defined as the minimum conjugate concentration required for bacterial clearance (Table 8A and Table 8B). An untreated growth control (40% blood, 0 ug/ml conjugate) was included in all assays as a growth comparator.
(§2) MBC was defined as the minimum compound concentration required for complete bacterial clearance (Table 18).
(§3) In most cases, 2-4 fold improvements in antibacterial activity for the conjugates are observed in the presence of complement active human blood.

[2] = tested on: E. coli ATCC 25922; format: cell-based
Protocol: as §1, §2, §3

[3] = tested on: P. aeruginosa PAO1; format: cell-based
Protocol: as §1, §2, §3

[4] = tested on: Ec 2469; format: cell-based, Escherichia coli
Protocol: (§4) Briefly, stock solutions of all antibacterial agents were prepared fresh in appropriate solvents (i.e. PBS, pH 7.4, DMSO, DI, etc.). Stock concentrations for drug conjugates were made at 12.5× the highest final assay concentration. All were serially diluted 2-fold, 8 or 12 times in a 96-well PCR plate (VWR cat. no. 83007-374). Bacterial cell suspensions generated from Mueller-Hinton agar (MHA) plate cultures were prepared in 0.85% saline and adjusted to ˜0.1 OD600 nm. […] For the conjugates, 92 μL of each cell suspension in RPMI B were added in the same 96-well plate assay format. […] Compounds were tested against a 14-strain panel comprised of E. coli (Ec), A. baumannii (Ab), P. aeruginosa (Pa), and K. pneumoniae (Kp) that were obtained from ATCC (Ec 25922, Ec 2489, Ab 19606, Pa 27853, Pa PAO1, Kp 43816, Kp 10031), Centers for Disease Control and Prevention (Ec AR0349), BEI Resources (Ab AB5075), Micromyx LLC (Ab 8990, Kp 6951), and Belgian Coordinated Collections of Microorganisms (Pa LES431) or generated in-house (Ec 25922 64X-1). […] E. coli strain ATCC 25922 and P. aeruginosa strain LES431 were run in the presence and absence of 50% heat-inactivated fetal bovine serum (FBS; Sigma, cat. no. F4135-100 mL). Plates were mixed by shaking then incubated at 35° C. overnight (16-20 h).

[5] = tested on: Ec 25922; format: cell-based, Escherichia coli; settings: for MIC in RPMI EC 25922: pH 7.4
Protocol: as §4

[6] = tested on: Ec 25922 64X-1 (COL^R); format: cell-based, Escherichia coli; settings: media CA-MHB
Protocol: (§5) Briefly, stock solutions of all antibacterial agents were prepared fresh in appropriate solvents (i.e. PBS, pH 7.4, DMSO, DI, etc.). Stock concentrations for drug conjugates were made at 12.5× the highest final assay concentration. All were serially diluted 2-fold, 8 or 12 times in a 96-well PCR plate (VWR cat. no. 83007-374). Bacterial cell suspensions generated from Mueller-Hinton agar (MHA) plate cultures were prepared in 0.85% saline and adjusted to ˜0.1 OD600 nm. Next, cell suspensions were diluted 1:200 in RPMI containing 5% Luria Broth (LB) to improve bacterial growth (BD Difco, cat. no. 244620) to a concentration of ˜5×10^5 CFU (colony-forming units)/mL. Due to poor solubility in Mueller-Hinton broth media, drug conjugates were evaluated in RPMI 1640 medium (+) L-glutamine, (+) sodium bicarbonate, pH 7.4 (“RPMI B”; Gibco, cat. no. 11875-085) as has been described as a more physiologically-relevant media for susceptibility testing of antibacterial compounds (1). For the conjugates, 92 μL of each cell suspension in RPMI B were added in the same 96-well plate assay format. […] Compounds were tested against a 14-strain panel comprised of E. coli (Ec), A. baumannii (Ab), P. aeruginosa (Pa), and K. pneumoniae (Kp) that were obtained from ATCC (Ec 25922, Ec 2489, Ab 19606, Pa 27853, Pa PAO1, Kp 43816, Kp 10031), Centers for Disease Control and Prevention (Ec AR0349), BEI Resources (Ab AB5075), Micromyx LLC (Ab 8990, Kp 6951), and Belgian Coordinated Collections of Microorganisms (Pa LES431) or generated in-house (Ec 25922 64X-1). […] E. coli strain ATCC 25922 and P. aeruginosa strain LES431 were run in the presence and absence of 50% heat-inactivated fetal bovine serum (FBS; Sigma, cat. no. F4135-100 mL). Plates were mixed by shaking then incubated at 35° C. overnight (16-20 h).

[7] = tested on: Ec AR0349 (mcr-1, COL^R); format: cell-based, Escherichia coli; settings: media CA-MHB
Protocol: as §5

[8] = tested on: Ab 19606 (COLhet^R); format: cell-based, Acinetobacter baumannii; settings: media CA-MHB
Protocol: as §5

[9] = tested on: Ab AB58705 (COL^R) IpxD, mut. (no LPS); format: cell-based, Acinetobacter baumannii; settings: media CA-MHB
[10] = tested on: Ab 8990 (COL^R); format: cell-based, Acinetobacter baumannii
Protocol: as §4

[11] = tested on: Ab AB5075; format: cell-based, Acinetobacter baumannii; settings: for MIC in RPMI AB 5075: pH 7.4
Protocol: as §4

[12] = tested on: Pa 27853; format: cell-based, Pseudomonas aeruginosa
Protocol: as §4

[13] = tested on: Pa LES431; format: cell-based, Pseudomonas aeruginosa
Protocol: as §4

[14] = tested on: Pa PAO1; format: cell-based, Pseudomonas aeruginosa; settings: for MIC: PAO1; for MIC in RPMI PA 01: PAO1, pH 7.4
Protocol: as §4

[15] = tested on: Kp 10031; format: cell-based, Klebsiella pneumoniae
Protocol: as §4

[16] = tested on: Kp 43816; format: cell-based, Klebsiella pneumoniae
Protocol: as §4

[17] = tested on: Kp 6951 (COL^R); format: cell-based, Klebsiella pneumoniae
Protocol: as §4

[18] = tested on: Sa RN; format: cell-based

Structure (SMILES)	MBC in blood AB 5075 [1] [µg/mL]	MBC in blood EC 25922 [2] [µg/mL]	MBC in blood PA 01 [3] [µg/mL]	MIC [4] [µg/mL]	MIC [5] [µg/mL]	MIC in RPMI EC 25922 [5] [µg/mL]	MIC [6] [µg/mL]	MIC [7] [µg/mL]	MIC [8] [µg/mL]	MIC [9] [µg/mL]	MIC [11] [µg/mL]	MIC in RPMI AB 5075 [11] [µg/mL]	MIC [12] [µg/mL]	MIC [13] [µg/mL]	MIC [14] [µg/mL]	MIC in RPMI PA 01 [14] [µg/mL]	MIC [15] [µg/mL]	MIC [16] [µg/mL]	MIC [18] [µg/mL]	further results
C#CCOCCOCCOCCOCCNC(=O)CN(CC(=O)N[C@@H](CCCC)C(=O)N[C@@H](CCN)C(=O)N[C@H](C(=O)NNC(=O)N[C@H]1CCNC(=O)[C@H]([C@@H](C)O)NC(=O)[C@H](CCN)NC(=O)[C@H](CCN)NC(=O)[C@H](CC(C)C)NC(=O)[C@@H](CC2CCCCC2)NC(=O)[C@H](CCN)NC1=O)[C@H](O)CCCCCC)CC(=O)N[C@@H](CCCC)C(=O)N[C@@H](CCN)C(=O)N[C@H](C(=O)NNC(=O)N[C@H]1CCNC(=O)[C@H]([C@@H](C)O)NC(=O)[C@H](CCN)NC(=O)[C@H](CCN)NC(=O)[C@H](CC(C)C)NC(=O)[C@@H](CC2CCCCC2)NC(=O)[C@H](CCN)NC1=O)[C@H](O)CCCCCC [Int-117] (I: [Nle][Dab][X1][azaGly][Dab][Dab][dCha]L[Dab][Dab]T / II: [Nle][Dab][X1][azaGly][Dab][Dab][dCha]L[Dab][Dab]T; lactam I:5-I:C, II:5-II:C; linker I:N-II:N via X4)	>0.2	>0.2	>0.2	8 (≈ 2.87 µM)	8 (≈ 2.87 µM)	1.08 (≈ 0.387 µM)	8 (≈ 2.87 µM)	8 (≈ 2.87 µM)	8 (≈ 2.87 µM)	8 (≈ 2.87 µM)	8 (≈ 2.87 µM)	1.08 (≈ 0.387 µM)	8 (≈ 2.87 µM)	4 (≈ 1.43 µM)	16 (≈ 5.74 µM)	2.16 (≈ 0.774 µM)	8 (≈ 2.87 µM)	8 (≈ 2.87 µM)	16 (≈ 5.74 µM)	MIC [10]: 8 µg/mL (≈ 2.87 µM); MIC [17]: 16 µg/mL (≈ 5.74 µM)
C#CCOCCOCCOCCOCCC(=O)Nc1nc(C)c(C(=O)N[C@@H](CCCC)C(=O)C[C@@H](CCN)C(=O)N[C@H](C(=O)NC(CCCN)C(=O)N[C@H]2CCNC(=O)[C@H]([C@@H](C)O)NC(=O)[C@H](CCN)NC(=O)[C@H](CCN)NC(=O)[C@H](CC(C)C)CC(=O)[C@@H](Cc3ccccc3)NC(=O)[C@H](CCN)CC2=O)[C@@H](C)O)s1 (stereo partly drawn) [Int-125]	0.1 (≈ 0.0637 µM)	0.05 (≈ 0.0318 µM)	0.2 (≈ 0.127 µM)	1 (≈ 0.637 µM)	1 (≈ 0.637 µM)	0.94 (≈ 0.599 µM)	64 (≈ 40.8 µM)	16 (≈ 10.2 µM)	4 (≈ 2.55 µM)	32 (≈ 20.4 µM)	2 (≈ 1.27 µM)	1.88 (≈ 1.2 µM)	2 (≈ 1.27 µM)	1 (≈ 0.637 µM)	2 (≈ 1.27 µM)	3.76 (≈ 2.4 µM)	1 (≈ 0.637 µM)	1 (≈ 0.637 µM)	>128	MIC ([10]; Ab 8990 (COL^R), media CA-MHB): >128 µg/mL; MIC ([17]; Kp 6951 (COL^R), media CA-MHB): >128 µg/mL
